Test results taken from ChEMBL document CHEMBL4507268 (2021).

Experiments:
[1] = test system: SN12C; assay: Proliferation assay: SN12C (renal cell carcinoma); assay type: functional, cell-based; settings: Homo sapiens
[2] = target: Activin receptor type-2B (Homo sapiens) (UniProt Q13705); settings: Compound concentration 1000.0 nM
[3] = target: Calcium/calmodulin-dependent protein kinase type 1 (Homo sapiens) (UniProt Q14012); settings: Compound concentration 1000.0 nM
[4] = target: T1, Calcium/calmodulin-dependent protein kinase type IV (Homo sapiens) (UniProt Q16566); settings: Compound concentration 1000.0 nM
T1 sequence (whole entry): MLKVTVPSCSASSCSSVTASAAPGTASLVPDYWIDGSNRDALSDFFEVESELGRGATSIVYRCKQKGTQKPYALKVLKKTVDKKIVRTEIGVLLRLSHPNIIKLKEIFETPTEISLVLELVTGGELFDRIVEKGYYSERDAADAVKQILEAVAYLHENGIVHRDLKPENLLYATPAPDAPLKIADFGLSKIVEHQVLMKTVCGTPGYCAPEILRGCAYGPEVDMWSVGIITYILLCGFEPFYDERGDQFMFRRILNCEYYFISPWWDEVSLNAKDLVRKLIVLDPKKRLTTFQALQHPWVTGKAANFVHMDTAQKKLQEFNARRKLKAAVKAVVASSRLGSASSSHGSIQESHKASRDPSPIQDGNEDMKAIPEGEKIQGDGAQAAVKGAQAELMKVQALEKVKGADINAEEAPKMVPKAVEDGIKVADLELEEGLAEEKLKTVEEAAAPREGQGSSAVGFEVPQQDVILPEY

[5] = test system: Epidermal growth factor receptor (Homo sapiens), P00533 [UNDEFINED MUTATION]; settings: Compound concentration 1000.0 nM
Epidermal growth factor receptor (Homo sapiens), P00533 [UNDEFINED MUTATION], sequence (P00533 whole entry, looked up, stated change not applied): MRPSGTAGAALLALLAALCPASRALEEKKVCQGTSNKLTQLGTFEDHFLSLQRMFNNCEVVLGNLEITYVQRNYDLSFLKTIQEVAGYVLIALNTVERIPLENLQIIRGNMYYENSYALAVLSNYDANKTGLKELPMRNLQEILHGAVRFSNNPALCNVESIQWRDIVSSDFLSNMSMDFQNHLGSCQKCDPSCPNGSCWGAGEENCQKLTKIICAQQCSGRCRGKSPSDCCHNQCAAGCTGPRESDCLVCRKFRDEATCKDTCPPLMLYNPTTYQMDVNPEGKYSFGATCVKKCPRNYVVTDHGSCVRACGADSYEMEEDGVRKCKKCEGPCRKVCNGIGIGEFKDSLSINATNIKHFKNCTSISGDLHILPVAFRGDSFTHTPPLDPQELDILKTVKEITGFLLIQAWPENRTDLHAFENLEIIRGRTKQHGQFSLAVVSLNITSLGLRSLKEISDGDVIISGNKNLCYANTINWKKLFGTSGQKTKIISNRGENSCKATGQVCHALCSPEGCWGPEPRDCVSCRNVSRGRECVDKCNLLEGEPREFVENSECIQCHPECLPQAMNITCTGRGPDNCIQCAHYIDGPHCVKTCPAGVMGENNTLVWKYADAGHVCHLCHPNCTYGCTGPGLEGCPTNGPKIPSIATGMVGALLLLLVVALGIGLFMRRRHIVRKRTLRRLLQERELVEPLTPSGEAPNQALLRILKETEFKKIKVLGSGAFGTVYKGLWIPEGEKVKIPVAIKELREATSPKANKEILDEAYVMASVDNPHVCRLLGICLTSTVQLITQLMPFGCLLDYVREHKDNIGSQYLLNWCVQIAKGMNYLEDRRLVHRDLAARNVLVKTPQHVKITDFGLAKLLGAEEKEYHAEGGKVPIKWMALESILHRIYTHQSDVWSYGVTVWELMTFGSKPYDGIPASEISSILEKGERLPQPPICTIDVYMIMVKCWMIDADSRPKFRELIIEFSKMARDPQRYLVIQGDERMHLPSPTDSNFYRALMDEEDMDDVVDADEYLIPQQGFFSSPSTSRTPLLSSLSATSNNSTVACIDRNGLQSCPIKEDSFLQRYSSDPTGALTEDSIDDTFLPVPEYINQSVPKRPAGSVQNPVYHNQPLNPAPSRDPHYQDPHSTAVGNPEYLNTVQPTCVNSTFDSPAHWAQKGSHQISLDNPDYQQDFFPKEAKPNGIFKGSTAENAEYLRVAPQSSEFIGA

[6] = test system: Receptor-type tyrosine-protein kinase FLT3 (Homo sapiens), P36888 [K663Q]; settings: Compound concentration 1000.0 nM
[7] = target: Hormonally up-regulated neu tumor-associated kinase (Homo sapiens) (UniProt P57058); settings: Compound concentration 1000.0 nM
Hormonally up-regulated neu tumor-associated kinase (Homo sapiens), sequence (P57058 whole entry): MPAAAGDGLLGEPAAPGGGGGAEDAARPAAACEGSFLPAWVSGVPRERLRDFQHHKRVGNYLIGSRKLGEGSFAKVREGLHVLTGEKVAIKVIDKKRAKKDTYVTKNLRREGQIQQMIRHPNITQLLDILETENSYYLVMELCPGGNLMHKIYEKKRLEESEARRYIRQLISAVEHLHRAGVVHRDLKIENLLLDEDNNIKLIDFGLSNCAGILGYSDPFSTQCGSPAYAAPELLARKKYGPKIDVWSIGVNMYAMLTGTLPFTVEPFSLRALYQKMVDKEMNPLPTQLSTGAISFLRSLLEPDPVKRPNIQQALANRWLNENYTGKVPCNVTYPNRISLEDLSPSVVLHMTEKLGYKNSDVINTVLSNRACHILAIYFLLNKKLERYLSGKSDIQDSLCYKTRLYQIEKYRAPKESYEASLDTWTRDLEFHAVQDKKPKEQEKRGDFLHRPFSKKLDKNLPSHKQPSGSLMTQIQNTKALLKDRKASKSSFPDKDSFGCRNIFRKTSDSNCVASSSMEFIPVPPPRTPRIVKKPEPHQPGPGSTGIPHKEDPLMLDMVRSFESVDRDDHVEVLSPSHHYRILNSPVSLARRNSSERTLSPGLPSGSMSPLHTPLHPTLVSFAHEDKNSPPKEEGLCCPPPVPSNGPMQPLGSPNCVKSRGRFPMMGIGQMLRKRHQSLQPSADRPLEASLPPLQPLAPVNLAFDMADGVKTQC

[8] = target: Mitogen-activated protein kinase kinase kinase 1 (Homo sapiens) (UniProt Q13233); settings: Compound concentration 1000.0 nM
[9] = target: Serine/threonine-protein kinase 26 (Homo sapiens) (UniProt Q9P289); settings: Compound concentration 1000.0 nM
Serine/threonine-protein kinase 26 (Homo sapiens), sequence (Q9P289 2-416 limits assumed): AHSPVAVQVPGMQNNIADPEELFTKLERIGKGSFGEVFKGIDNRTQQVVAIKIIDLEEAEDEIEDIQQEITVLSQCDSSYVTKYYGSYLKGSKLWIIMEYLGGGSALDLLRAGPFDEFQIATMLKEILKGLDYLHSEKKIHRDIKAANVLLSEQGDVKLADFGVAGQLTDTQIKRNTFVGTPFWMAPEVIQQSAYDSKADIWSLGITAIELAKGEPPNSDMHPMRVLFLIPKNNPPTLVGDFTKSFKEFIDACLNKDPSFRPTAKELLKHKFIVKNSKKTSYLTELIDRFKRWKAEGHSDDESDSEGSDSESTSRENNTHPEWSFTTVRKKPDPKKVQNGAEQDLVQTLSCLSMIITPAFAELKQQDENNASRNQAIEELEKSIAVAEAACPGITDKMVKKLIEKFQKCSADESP

[10] = target: Myosin light chain kinase 2, skeletal/cardiac muscle (Homo sapiens) (UniProt Q9H1R3); settings: Compound concentration 1000.0 nM
Myosin light chain kinase 2, skeletal/cardiac muscle (Homo sapiens), sequence (Q9H1R3 whole entry, canonical isoform): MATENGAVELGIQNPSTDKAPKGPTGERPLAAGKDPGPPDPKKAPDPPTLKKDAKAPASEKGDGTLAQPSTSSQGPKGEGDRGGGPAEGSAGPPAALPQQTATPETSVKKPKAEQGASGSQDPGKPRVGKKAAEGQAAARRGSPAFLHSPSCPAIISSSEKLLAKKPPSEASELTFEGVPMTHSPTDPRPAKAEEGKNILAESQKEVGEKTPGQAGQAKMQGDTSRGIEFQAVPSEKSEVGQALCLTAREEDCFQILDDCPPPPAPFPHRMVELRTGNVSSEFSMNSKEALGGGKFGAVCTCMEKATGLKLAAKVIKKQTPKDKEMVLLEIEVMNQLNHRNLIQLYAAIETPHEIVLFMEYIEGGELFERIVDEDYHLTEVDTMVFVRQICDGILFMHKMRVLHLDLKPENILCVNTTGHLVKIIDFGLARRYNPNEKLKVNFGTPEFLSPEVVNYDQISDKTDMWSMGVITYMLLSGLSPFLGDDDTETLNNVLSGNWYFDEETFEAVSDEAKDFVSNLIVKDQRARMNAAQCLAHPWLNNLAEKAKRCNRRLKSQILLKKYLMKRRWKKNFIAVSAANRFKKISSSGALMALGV

[11] = test system: Phosphatidylinositol 4,5-bisphosphate 3-kinase catalytic subunit alpha isoform (Homo sapiens), P42336 [Q546K]; settings: Compound concentration 1000.0 nM
[12] = target: T2, Serine/threonine-protein kinase D1 (Homo sapiens) (UniProt Q15139); settings: Compound concentration 1000.0 nM
T2 sequence (whole entry): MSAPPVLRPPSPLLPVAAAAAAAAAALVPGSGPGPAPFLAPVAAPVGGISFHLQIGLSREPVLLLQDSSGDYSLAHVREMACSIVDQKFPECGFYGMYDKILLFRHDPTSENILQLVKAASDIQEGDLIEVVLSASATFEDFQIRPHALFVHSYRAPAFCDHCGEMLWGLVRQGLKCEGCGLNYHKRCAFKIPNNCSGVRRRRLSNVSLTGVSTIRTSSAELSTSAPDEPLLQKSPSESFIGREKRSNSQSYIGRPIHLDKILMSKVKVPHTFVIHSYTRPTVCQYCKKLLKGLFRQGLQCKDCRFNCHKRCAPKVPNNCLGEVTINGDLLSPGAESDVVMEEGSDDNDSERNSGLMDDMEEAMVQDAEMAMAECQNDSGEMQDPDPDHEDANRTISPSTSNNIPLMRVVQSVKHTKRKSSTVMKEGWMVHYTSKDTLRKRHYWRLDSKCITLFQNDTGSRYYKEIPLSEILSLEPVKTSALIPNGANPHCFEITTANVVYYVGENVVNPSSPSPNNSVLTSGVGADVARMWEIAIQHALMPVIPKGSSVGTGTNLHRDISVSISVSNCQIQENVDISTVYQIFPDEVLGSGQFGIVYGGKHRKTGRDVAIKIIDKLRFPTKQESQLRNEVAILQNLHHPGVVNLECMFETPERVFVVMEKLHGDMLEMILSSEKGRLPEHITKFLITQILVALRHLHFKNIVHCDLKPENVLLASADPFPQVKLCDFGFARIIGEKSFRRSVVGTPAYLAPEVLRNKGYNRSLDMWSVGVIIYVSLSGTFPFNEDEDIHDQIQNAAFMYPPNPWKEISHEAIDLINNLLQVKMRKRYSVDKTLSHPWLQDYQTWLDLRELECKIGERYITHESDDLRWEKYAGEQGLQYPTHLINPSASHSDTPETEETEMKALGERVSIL

[13] = target: T3, Tyrosine-protein kinase Tec (Homo sapiens) (UniProt P42680); settings: Compound concentration 1000.0 nM
T3 sequence (whole entry): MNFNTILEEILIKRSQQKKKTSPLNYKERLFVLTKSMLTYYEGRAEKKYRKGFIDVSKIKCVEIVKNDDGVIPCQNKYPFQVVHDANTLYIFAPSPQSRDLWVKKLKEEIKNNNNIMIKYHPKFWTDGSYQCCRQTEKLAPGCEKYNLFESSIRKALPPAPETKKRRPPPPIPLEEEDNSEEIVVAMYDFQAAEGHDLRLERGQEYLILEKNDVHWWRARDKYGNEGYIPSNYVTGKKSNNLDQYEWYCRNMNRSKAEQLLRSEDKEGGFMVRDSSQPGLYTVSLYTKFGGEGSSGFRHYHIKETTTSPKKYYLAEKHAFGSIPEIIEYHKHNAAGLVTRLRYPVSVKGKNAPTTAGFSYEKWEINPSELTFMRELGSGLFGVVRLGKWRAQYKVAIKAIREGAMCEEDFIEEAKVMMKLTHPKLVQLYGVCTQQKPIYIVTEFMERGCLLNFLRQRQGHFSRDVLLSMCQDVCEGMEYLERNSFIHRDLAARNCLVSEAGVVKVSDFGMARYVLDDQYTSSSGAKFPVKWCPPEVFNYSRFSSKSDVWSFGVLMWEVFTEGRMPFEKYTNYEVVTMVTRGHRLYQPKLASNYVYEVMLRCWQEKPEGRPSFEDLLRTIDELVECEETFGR

[14] = target: Non-receptor tyrosine-protein kinase TNK1 (Homo sapiens) (UniProt Q13470); settings: Compound concentration 1000.0 nM
Non-receptor tyrosine-protein kinase TNK1 (Homo sapiens), sequence (Q13470 whole entry): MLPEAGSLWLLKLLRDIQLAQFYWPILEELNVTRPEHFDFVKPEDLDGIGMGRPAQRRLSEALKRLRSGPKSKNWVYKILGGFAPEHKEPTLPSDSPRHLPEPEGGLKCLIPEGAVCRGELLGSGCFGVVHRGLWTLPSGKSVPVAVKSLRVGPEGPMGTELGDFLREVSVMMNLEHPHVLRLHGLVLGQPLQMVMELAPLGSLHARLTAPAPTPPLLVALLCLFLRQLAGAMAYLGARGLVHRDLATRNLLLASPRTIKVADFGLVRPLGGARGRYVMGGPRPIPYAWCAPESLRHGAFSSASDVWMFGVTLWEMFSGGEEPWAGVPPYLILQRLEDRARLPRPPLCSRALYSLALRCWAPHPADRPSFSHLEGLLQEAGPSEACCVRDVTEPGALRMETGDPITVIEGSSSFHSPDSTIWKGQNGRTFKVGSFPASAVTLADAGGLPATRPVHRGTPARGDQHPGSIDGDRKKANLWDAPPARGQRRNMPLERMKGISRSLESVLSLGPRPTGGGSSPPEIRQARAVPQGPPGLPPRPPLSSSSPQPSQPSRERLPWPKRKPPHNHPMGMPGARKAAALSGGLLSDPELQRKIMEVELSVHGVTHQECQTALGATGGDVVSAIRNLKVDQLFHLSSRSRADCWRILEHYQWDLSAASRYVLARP

[15] = target: Histamine H1 receptor (Homo sapiens) (UniProt P35367); settings: Compound concentration 10.0 uM
Histamine H1 receptor (Homo sapiens), sequence (P35367 whole entry): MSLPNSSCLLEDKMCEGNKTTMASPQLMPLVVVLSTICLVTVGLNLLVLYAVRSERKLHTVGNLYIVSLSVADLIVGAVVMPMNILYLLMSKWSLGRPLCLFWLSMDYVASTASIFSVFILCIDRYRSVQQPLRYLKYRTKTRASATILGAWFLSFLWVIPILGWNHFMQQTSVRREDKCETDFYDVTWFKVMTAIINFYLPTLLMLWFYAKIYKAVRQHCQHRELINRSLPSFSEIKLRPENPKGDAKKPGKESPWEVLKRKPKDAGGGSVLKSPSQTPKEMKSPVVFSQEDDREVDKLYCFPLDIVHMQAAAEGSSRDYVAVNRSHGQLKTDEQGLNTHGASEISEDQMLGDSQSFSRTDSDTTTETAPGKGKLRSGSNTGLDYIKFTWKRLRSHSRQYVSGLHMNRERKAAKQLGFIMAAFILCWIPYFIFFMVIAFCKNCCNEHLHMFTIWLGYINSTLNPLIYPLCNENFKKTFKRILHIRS

Activin receptor type-2B (Homo sapiens), sequence (Q13705 whole entry): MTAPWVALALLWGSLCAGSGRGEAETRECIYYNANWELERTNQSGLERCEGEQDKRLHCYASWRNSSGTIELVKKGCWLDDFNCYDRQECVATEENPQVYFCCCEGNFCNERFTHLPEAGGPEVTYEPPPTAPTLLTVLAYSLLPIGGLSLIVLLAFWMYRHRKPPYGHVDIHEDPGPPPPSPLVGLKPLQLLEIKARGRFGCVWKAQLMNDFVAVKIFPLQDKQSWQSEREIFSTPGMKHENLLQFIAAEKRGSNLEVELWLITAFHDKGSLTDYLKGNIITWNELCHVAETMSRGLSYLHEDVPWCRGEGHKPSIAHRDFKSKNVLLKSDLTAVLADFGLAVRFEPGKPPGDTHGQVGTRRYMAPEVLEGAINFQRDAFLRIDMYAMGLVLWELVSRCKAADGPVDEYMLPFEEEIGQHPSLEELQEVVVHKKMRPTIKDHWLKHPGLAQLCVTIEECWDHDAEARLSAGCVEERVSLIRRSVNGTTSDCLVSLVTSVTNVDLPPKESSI
Calcium/calmodulin-dependent protein kinase type 1 (Homo sapiens), sequence (Q14012 whole entry, looked up): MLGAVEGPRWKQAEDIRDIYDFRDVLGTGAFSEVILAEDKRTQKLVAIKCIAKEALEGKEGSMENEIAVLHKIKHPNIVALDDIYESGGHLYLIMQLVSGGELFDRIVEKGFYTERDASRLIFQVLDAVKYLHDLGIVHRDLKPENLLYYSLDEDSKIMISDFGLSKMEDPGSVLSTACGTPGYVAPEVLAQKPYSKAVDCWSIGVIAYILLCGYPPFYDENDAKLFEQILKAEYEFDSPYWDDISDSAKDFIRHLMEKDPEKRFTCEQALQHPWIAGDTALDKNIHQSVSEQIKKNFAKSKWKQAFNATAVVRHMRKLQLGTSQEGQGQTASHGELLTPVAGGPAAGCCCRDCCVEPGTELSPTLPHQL

Structure (SMILES) | IC50 [1] | residual activity [2] | residual activity [3] | residual activity [4] | residual activity [5] | residual activity [6] | residual activity [7] | residual activity [8] | residual activity [9] | residual activity [10] | residual activity [11] | residual activity [12] | residual activity [13] | residual activity [14] | inhibition [15]
CN1CCN(c2cnc3c(C4CCN(C(=O)c5ccc(OC(F)(F)F)cc5N)CC4)ncnc3c2)CC1 [BAY-885] | > 30 µM (not active) | 100% | 100% | 94% | 38% | 100% | 95% | 100% | 98% | 85% | 100% | 85% | 100% | 100% | 14.6%
Cc1nc(C2CCN(C(=O)c3ccc(OC(F)(F)F)cc3N)CC2)c2ncc(N3CCN(C)CC3)cc2n1 [BAY-693] | 29.3 µM (not active) | 100% | 100% | 95% | 49% | 100% | 100% | 82% | 100% | 87% | 88% | 79% | 96% | 100% | 4.99%
